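Cultured in 96-well plates, cells were exposed to test compound for 48 hours across five concentrations. GI50: concentration for 50% inhibition of growth. TGI: total growth inhibition.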
What was measured:
Test in all cases: NCI-60 cell line screen, 48 h
OVCAR-5 ovarian = system: OVCAR-5 ovarian
A549 NSCLC = system: A549 NSCLC
CAKI-1 renal = system: CAKI-1 renal
K-562 leukemia = system: K-562 leukemia
U251 CNS = system: U251 CNS
NCI-H460 lung = system: NCI-H460 lung
NCI-H23 lung = system: NCI-H23 lung
IGROV1 ovarian = system: IGROV1 ovarian
SF-295 CNS = system: SF-295 CNS
UO-31 renal = system: UO-31 renal

Compound | GI50 (OVCAR-5 ovarian) [µM] | TGI (OVCAR-5 ovarian) [µM] | GI50 (A549 NSCLC) [µM] | TGI (A549 NSCLC) [µM] | GI50 (CAKI-1 renal) [µM] | TGI (CAKI-1 renal) [µM] | GI50 (K-562 leukemia) [µM] | TGI (K-562 leukemia) [µM] | GI50 (U251 CNS) [µM] | TGI (U251 CNS) [µM] | GI50 (NCI-H460 lung) [µM] | TGI (NCI-H460 lung) [µM] | GI50 (NCI-H23 lung) [µM] | TGI (NCI-H23 lung) [µM] | GI50 (IGROV1 ovarian) [µM] | TGI (IGROV1 ovarian) [µM] | GI50 (SF-295 CNS) [µM] | TGI (SF-295 CNS) [µM] | GI50 (UO-31 renal) [µM] | TGI (UO-31 renal) [µM]
CCC(CC)c1nc(Nc2ccc(C(=O)OC)cc2)c2ccccc2n1 | 17.9 | > 50 | 10.2 | 27.2 | 5.74 | 11.8 | 7.39 | > 31.6 | 8.5 | 19 | 19.9 | > 50 | 15.5 | > 37.4 | 11.6 | 28.5 | > 18.8 | > 26 | 7.94 | 15.4
Nc1c(C(=O)c2ccc(-c3cccnc3)cc2)cnn1-c1ccc(F)cc1 | > 25 | > 25 | > 14.4 | > 25 | > 25 | > 25 | > 25 | > 25 | > 15.2 | > 25 | > 14.2 | > 25 | > 22.7 | > 25 | 24.3 | > 25 | > 25 | > 25 | > 12.8 | > 22
O=C1C(Cl)=C(Sc2nnc3c4ccccc4c4ccccc4c3n2)C(=O)c2ccccc21 |  | 45.3 |  | 71.4 |  | 31.9 |  | > 59.3 |  | 28.4 |  | 37 |  | 19.4 |  | 21.2 |  | 23.3 |  | 28.4
Oc1ccc([Te]CCNCC[Te]c2ccc(O)cc2)cc1 |  | 37.7 |  | 16.6 |  | > 100 |  | > 100 |  | 25.6 |  | 33.9 |  | 23.2 |  | > 100 |  | 75.4 |  | 31.7
COc1ccc(N=Cc2c(O)ccc3c2oc2cc(Cl)c(O)c(Cl)c23)cc1 | 17.5 | 38.9 | 14.5 | 48.2 | 4.75 | 28.1 | 5.63 | 49.7 | 5.39 | 34.9 | 12.7 | 33.9 | 12.2 | 42.5 | 14.7 | 43.3 | 3.39 | 17.8 | 5 | 26.6
CC(C)(C)N1CCC1CN (stereo not given) | > 100 | > 100 | > 100 | > 100 | > 100 | > 100 | > 100 | > 100 | > 100 | > 100 | > 100 | > 100 | > 100 | > 100 | > 100 | > 100 | > 100 | > 100 | > 100 | > 100
CC12OOC(c3ccccc31)c1c2ccc2ccccc12 (stereo not given) |  | 33.6 |  | 8.43 |  | 4.64 |  | 3.58 |  | 28.1 |  | 5.48 |  | 26.6 |  | 3.67 |  | 14.3 |  | 23.2
CN1C(=O)CCC2[C@@H]3CC=C4C[C@@H](O)CC[C@]4(C)C3CC[C@@]21C (stereo not given in full) |  | > 100 |  | > 100 |  | > 100 |  | > 100 |  | > 100 |  | > 100 |  | > 100 |  | > 100 |  | > 100 |  | > 100
CCCCCCCCOCC(O)COC(C)C (stereo not given) |  | > 100 |  | > 100 |  | > 100 |  | 96.6 |  | > 100 |  | > 100 |  | 88 |  | > 100 |  | > 100 |  | > 100
O=[N+]([O-])c1ccc(C2CC(c3ccccc3Cl)=Nc3ccccc3S2)cc1 (stereo not given) |  | 62.7 |  | 33.4 |  | > 73.5 |  | 6.35 |  | 12.2 |  | 45.1 |  | 10.8 |  | 29.6 |  | 38.5 |  | 36.8
